In paper PMC11215307, “Targeting dermatophyte Cdc42 and Rac GTPase signaling to hinder hyphal elongation and virulence” (iScience, 2024):
“Also recorded” adds a separate entry of the source.

How the values were obtained:
TrCdc42 = test: Guanine nucleotide exchange assay of TrCdc42-His promoted by TrCdc24 DH-PH (bodipy-FL GTP fluorescence); assay type: biochemical, Trichophyton rubrum; settings: for IC50: guanine nucleotide exchange of TrCdc42 by TrCdc24, fluorescence at 60 min; for Selectivity between fungal Cdc42 and Rac: comparison of TrCdc42 and TrRac IC50 (Table 1)
Procedure: (§1) One μM of TrRac or TrCdc42-His was mixed with 0.1 μM bodipy-FL GTP (Thermo Fisher, Waltham, MA, USA) in Buffer A and allowed to equilibrate for 3 min at 20°C–25°C. Ammonium sulfate, EDTA, or recombinant TrCdc24 DH-PH proteins were incubated with the compounds or vehicles alone (final DMSO concentration: 1%) at the indicated concentrations in the reaction buffer for 20 min at room temperature. The reaction was initiated by combining TrRac or TrCdc42/bodipy-FL GTP (100 μL) with Cdc24DH-PH (50 μL) at room temperature. The change in bodipy-FL-GTP fluorescence (excitation: 485 nm, emission: 535 nm) was monitored for 60 min using a Berthold tristar2 LB942.
(§2) Statistical analyses were conducted using Microsoft Excel and Prism 10, GraphPad. All experiments were performed more than three times. Statistical significance was determined using Student’s t test, one-way analysis of variance, and Tukey–Kramer test. IC50 values were ascertained by plotting the fluorescent intensity (% of control) at 60 min using a specific formula: IC50=x2−(x2/x1)^(50−y2/y2−y1)

TrRac = test: Guanine nucleotide exchange assay of TrRac promoted by TrCdc24 DH-PH (bodipy-FL GTP fluorescence); assay type: biochemical, Trichophyton rubrum; settings: fluorescence at 60 min
Procedure: as §1, §2

[1] = test system: T. rubrum conidial germination; test: T. rubrum conidia germination assay; assay type: cell-based, Trichophyton rubrum; settings: for IC50: overnight incubation at 28°C in Sabouraud medium, calcofluor white staining; for Effect on conidial germination in T. rubrum: in cellulo screen of small GTPase inhibitors
Procedure: Fungal conidia (2 × 10^6) were subjected to an overnight incubation at 28°C in Sabouraud medium, supplemented with 1% DMSO (control) or the Rac and/or Cdc42 inhibitors; 10, 32, and 100 μM EHop-016; 100, 320, and 1000 μM AZA1; 10, 32, and 100 μM EHT1864; 10, 100, and 1000 μM CASIN; 200, 500, and 1000 μM NSC23766; 20, 200, and 2000 μM ketorolac; 100 μM MBQ-167; 1 and 10 μM ML-141; 1000 μM ZCL278; and 50 μM ITX3. Following the incubation, the fungal conidia were washed twice with saline and then stained with 0.2 mM calcofluor white. The germinated and ungerminated conidia were subsequently observed and counted under a fluorescent microscope (Olympus BX53).

[2] = test system: T. rubrum mycelial growth; test: Mycelial growth inhibition on modified 1/10 Sabouraud glucose agar; assay type: cell-based, Trichophyton rubrum; settings: in cellulo screen of small GTPase inhibitors
Procedure: Trichophyton rubrum CBS118892, Escherichia coli BL21, and Agrobacterium tumefaciens EHA105 were used.[74]^,[78]^,[79] E. coli BL21 was cultured in LB medium with appropriate antibiotics at 37°C. A. tumefaciens was cultured in LB or Agrobacterium induction medium supplemented with 0.2 mM acetosyringone at 28°C.[73] T. rubrum was cultured at 28°C. Conidia of T. rubrum were prepared using a previously described method.[80] Sabouraud agar or RPMI with MOPS agar was used for hyphal formation. To evaluate mycelial growth inhibition by inhibitors, a modified 1/10 Sabouraud glucose agar (containing 0.2% bacto peptone, 0.1% glucose, 0.1% KH2PO4, 0.1% MgSO4 7H2O, 1.5% bacto agar, pH unadjusted) was used.

T. rubrum = test: Invertebrate (silkworm) infection model of dermatophytosis; assay type: in vivo, Bombyx mori; settings: conidia (5 × 10^6) injected into silkworm hemolymph
Procedure: Eggs from silkworms were procured from Ehime-Sansh Co., Ltd. (Japan) and reared following a method described previously.[86]^,[87] Fifth instar silkworm larvae were nourished with an artificial diet (Silkmate 2S; Ehime-Sanshu Co., Ltd., Japan) overnight.[88]^,[89] Dermatophyte infection was conducted in accordance with a previously outlined procedure.[53] Conidia (5 × 10^6) of T. rubrum were injected into the silkworm hemolymph.

[3] = test system: T. rubrum growth on human nail fragments; test: In vitro nail infection assay; assay type: cell-based, Trichophyton rubrum; settings: 2.6% (60 mM) EHop-016, four applications every 24 h, observed after 36 days at 28°C, versus vehicle
Procedure: The conidial suspension (1 × 10^4/10 μL/nail fragment) of T. rubrum was administered to autoclaved nail fragments obtained from an adult volunteer (ethics approval, No. R3-6, Musashino University, Japan) and incubated at 28°C. After 24 h, either the vehicle (30% DMSO/5% Tween 80) or 60 mM EHop-016 was applied to the nail fragment. A total of four applications were administered every 24 h. The nails were examined after 36 days of incubation.

Row | Molecule | IC50 (TrCdc42) [µM] | IC50 (TrRac) [µM] | IC50 ([1]; Trichophyton rubrum) [µM] | Effect on conidial germination in T. rubrum [1] | Effect on mycelial growth in T. rubrum [2] | IC50 [1] [µM] | Selectivity between fungal Cdc42 and Rac (TrCdc42) | Survival of silkworms infected with T. rubrum (T. rubrum) | T. rubrum growth on human nails [3] | Inhibitory activity in conidial germination inhibition assay ([1]; at 100 μM)
1 | Cc1cc2cc(Nc3ccnc(Nc4ccc5[nH]c(C)cc5c4)n3)ccc2[nH]1 [AZA1] | 147 | 127 | 127 | hindered | hindered | – | – | – | – | –
2 | C[C@H]1CCC/C=C/[C@@H]2C[C@H](O)C[C@H]2[C@H](O)/C=C/C(=O)O1 [Brefeldin A] | – | – | – | did not | did not | – | – | – | – | –
3 | OCCNC1CCCc2c1[nH]c1ccc(-c3ccccc3)cc21 (centres unmarked) [CASIN] | 192 | 518 | – | – | – | 20 | – | – | – | –
4 | O=c1cc(CN2CCOCC2)occ1OCCCCCSc1ccnc2cc(C(F)(F)F)ccc12 [EHT1864] | 154 | > 1000 | 16 | hindered | hindered | – | higher selectivity for Cdc42 than for Rac | – | – | –
5 | CCn1c2ccccc2c2cc(Nc3ccnc(NCCCN4CCOCC4)n3)ccc21 [EHop-016] | 40 | 137 | 45 | – | – | – | higher selectivity for Cdc42 than for Rac | significantly extended the survival | no fungal lawn was observed; also recorded: lesser T. rubrum growth on the nails | –
6 | Cc1cc(/C=c2/sc3nc4ccccc4n3c2=O)c(C)n1-c1ccccc1 [ITX3] | > 50 | > 50 | – | – | – | > 50 | – | – | – | –
7 | O=C(c1ccccc1)c1ccc2n1CCC2C(=O)O (centres unmarked) [Ketorolac] | 889 | 1420 | 363 | – | – | – | – | – | – | –
8 | CCn1c2ccccc2c2cc(-n3nncc3-c3ccccc3)ccc21 [MBQ-167] | > 100 | > 100 | > 100 | – | – | – | – | – | – | did not show any inhibitory activity
9 | COc1ccc(C2CC(c3ccccc3)=NN2c2ccc(S(N)(=O)=O)cc2)cc1 (centres unmarked) [ML-141] | > 1000 | > 1000 | – | – | – | 1.7 | – | – | – | –
10 | CCN(CC)CCCC(C)Nc1nc(C)cc(Nc2ccc3nc(C)cc(N)c3c2)n1 (centres unmarked) [NSC23766] | 368 | 477 | 640 | hindered | hindered | – | – | – | – | –
11 | Cc1cc(C)nc(NS(=O)(=O)c2ccc(NC(=S)NC(=O)COc3ccc(Br)cc3Cl)cc2)n1 [ZCL278] | > 1000 | > 1000 | – | – | – | > 1000 | – | – | – | –
12 | NAV2729 | – | – | – | did not | did not | – | – | – | – | –
13 | Rhosin | – | – | – | did not | did not | – | – | – | – | –
